The text below walks through data of PMC3130785, “Small Compound 6-O-Angeloylplenolin Induces Mitotic Arrest and Exhibits Therapeutic Potentials in Multiple Myeloma” (PLoS ONE, 2011).

One may read the IC50 as the concentration that inhibits the measured activity by half.

One assay concerns MM.1S. Put plainly: MTT cell proliferation assay. Format: cell-based. To be noted: Homo sapiens, MM1.S, 48 h. How it is done: (§1) U266, RPMI 8226 cells (1×10^4), primary CD138+ cells, PBMCs (5×10^4), and BMSCs (1×10^4) were cultured in 96-well dishes and incubated without or with 6-OAP at indicated concentration for 48 h. MM.1S and MM.1R cells (2×10^4) were seeded into 96-well dishes and pre-cultured for 24 h, then treated with 6-OAP for 48 h. Cell proliferation was determined by MTT assay. Cell viability was estimated by trypan blue dye exclusion.
(In general: Tetrazolium dyes change colour on reduction, which living cells bring about.)

Another assay concerns U266. Nature of the assay: MTT cell proliferation assay. It is filed as cell-based. The conditions noted are these: Homo sapiens, U-266, 48 h. How it is done:
as §1

The test system of the next assay is MM.1R. Nature of the assay: MTT cell proliferation assay. It is filed as cell-based. To be noted: Homo sapiens, 48 h. How it is done: as §1
Another assay deals with RPMI 8226. Put plainly: MTT cell proliferation assay. It is filed as cell-based. The conditions noted are these: Homo sapiens, 48 h. How it is done: as §1
For a further assay, the system named is pERK1/2. Nature of the assay: Western blotting, 6-OAP/BOR. It is filed as cell-based, human. To be noted: MM.1S; 6-OAP 5 µM for 6 h. How it is done: (§2) Cell pellets were lysed in RIPA buffer containing 50 mM Tris pH 8.0, 150 mM NaCl, 0.1% SDS, 0.5% deoxycholate, 1% NP-40, 1 mM DTT, 1 mM NaF, 1 mM sodium vanadate, and protease inhibitors cocktail (Sigma). For immunoprecipitations, cells were lysed on ice for 15 minutes in RIPA buffer. Lysates were centrifuged. The supernatant was incubated with indicated antibodies overnight, after which protein A/G Plus beads (Santa Cruz Biotechnology) were added and incubated for 3 h. The beads were washed 4 times in RIPA buffer. Then the beads were resuspended in 1× sample buffer and boiled for 3 min. Protein extracts were quantitated and loaded on 8% to 12% sodium dodecyl sulfate polyacrylamide gel, electrophoresed, and transferred to a nitrocellulose membrane (Whatman). The membrane was incubated with primary antibody, washed, and incubated with horseradish peroxidase (HRP)–conjugated secondary antibody (Pierce). Detection was performed by using a chemiluminescent western detection kit (Cell Signaling). […]

In the next assay the test system is pJak2 and pStat3. Put plainly: Western blotting, IL-6 stimulation. To be noted: MM.1S. It is filed as cell-based, human. How it is done:
as §2
Figure 5 6-OAP overcomes the protective effects of IL-6, IGF-I and BMSCs on MM cells. […] Cell proliferation was assessed by MTT assay. […] Cell proliferation was assessed by MTT assay. *p<.01,** p<.05. […]
On the technique in general: A western blot detects proteins with antibodies after separation by electrophoresis.

The next assay deals with Bacillus subtilis. Set-up: method as in PMID 9461679, PMID 8657743, PMID 12521264. The conditions noted are these: cited from earlier work.

Turning to `CC=C(C)C(=O)OC1C2C(CC(C)C3C=CC(=O)C31C)OC(=O)C2C` (centres unmarked) [6-OAP, 6-O-angeloylplenolin], the IC50 turned out to be 6.1 ± 0.4 µM in the assay on MM.1S, 8.6 ± 0.5 µM with U266, 9.2 ± 2.1 µM with MM.1R and 3.5 ± 0.3 µM with RPMI 8226. For the same compound, the “phosphorylated ERK1/2” value in the assay with pERK1/2 was “induced an increase in phosphorylated ERK1/2”. The “pStat3 in cells upon IL-6” value in the assay on pJak2 and pStat3 (IL-6 10 ng/ml, then 6-OAP 5 to 10 µM for 12 h) is listed as “dramatically reduced”. The “IL-6-induced pJak2 and pStat3” value in the assay with pJak2 and pStat3 (pretreatment 6-OAP for 12 hours, IL-6 10 ng/ml 10 to 30 min) was “markedly inhibited IL-6-induced upregulation of pJak2 and pStat3”. In addition, the antibacterial activity entry in the assay with Bacillus subtilis is listed as “exhibit antibacterial activity”.
